Results from patent US9480695B2, “Methods for inducing orexin neurons and agent for treating narcolepsy or eating disorder” (THE UNIVERSITY OF TOKYO, priority 2011, dated 2016).

Assays:
Type in all cases: cell-based
[1] = tested on: endbrain-derived neurosphere (NSph); test: Orexin inducing action on mouse fetus-derived neurosphere (NSph), RT-PCR; details: 1 mM from initiation of NSph culture, 6 days plus 10 days differentiation; FIG. 7
Description: A culture and differentiation induction experiment was performed based on the method of Ciccolini and Svendsen (1998, J Neurosci. 18(19): 7869-80). An endbrain was removed from a C57BL/6N mouse fetus having an embryonic age of 14.5 days in ice-cold PBS/0.6% glucose. Dispersion into a single cell was performed by pipetting, and cells were suspended in a medium for NSph [DMEM/F12 (Wako) containing 1×B27 (Invitrogen), 20 ng/ml EGF (Sigma), 20 ng/ml FGF-basic (PEPROTECH), 5 μg/ml heparin (Sigma)] and seeded on a 10 cm petri dish in an amount of 2×10^6 cells/10 ml. Half the amount of the medium was exchanged 3 days after initiation of culturing, and culturing was performed for another 3 days (total 6 days).
NSph was recovered 6 days after initiation of culturing, and cells were dispersed by pipetting in PBS/0.6% glucose. Cells were collected by centrifugation and suspended in a medium for differentiation induction (not containing EGF, FGF-basic and heparin of a medium for NSph). Cells were seeded in an amount of 4.5×10^5 cells/7.5 ml on a 6 cm dish which had been coated with poly-L-lysine/laminin (both Sigma) in advance, and differentiation was induced. Half the amount of the medium was exchanged 5 days after initiation of differentiation induction, and culturing was performed for another 5 days (total 10 days). […]

[2] = tested on: Mouse ES cells (J1 strain); test: Induction of Hcrt expression in neural differentiation from mouse ES cells, SDIA differentiation culture system, RT-PCR
Description: Mouse ES cells (J1 strain) which had been maintained in a medium for an ES cell [DMEM (Wako) added with 15% FBS (Biowest), 1 mM sodium pyruvate (Invitrogen), […] (Invitrogen), 2 mM L-glutamine (Invitrogen), 1 mM non essential amino acid (Invitrogen), 50 U/ml penicillin/50 μg/ml streptomycin (Invitrogen), 2000 U leukemia inhibitory factor (Chemicon, CA)] were seeded on a 10 cm culture dish so that the cell count became 1×10^5 cells per culture dish on which PA6 stromal cells had been seeded in advance, and differentiation induction was performed in a medium for neural differentiation [Glasgow MEM (Invitrogen) added with 10% KSR (Invitrogen), […] (Invitrogen), 1 mM non essential amino acid (Invitrogen), 50 U/ml penicillin/50 μg/ml streptomycin (Invitrogen)] for 10 days. On 4th and 7th days of differentiation culturing, the medium was exchanged. In addition, from 4th day of differentiation culturing, 5 nM recombinant human BMP4 (Wako) was added (FIG. 1). On 10th day of differentiation culturing, cells were collected and pelletized by a centrifugation operation to remove the culture medium. Thereafter, the pellets were immediately frozen in liquid nitrogen and stored at −80° C. until use.
The total RNA was extracted from the collected cells using RNeasy plus Mini Kit (QIAGEN). Then, a reverse transcription reaction was performed in a reaction liquid containing 1 μg of the total RNA, and Oligo (dT) using SuperScript III First Strand Synthesis System (Invitrogen) to synthesize a cDNA.
A PCR reaction was performed on a 10 μl scale, 1 U of LA-Taq DNA Polymerase (Takara) was added to 0.5 μl of a cDNA, 5 μl of 2×GC Buffer I, each 200 μM of dNTP, 1.5 mM MgCl2, and each primer having a final concentration of 0.2 μM, thermal denaturation was performed at 95° C. for 3 minutes, and the reaction was performed under the condition of (30 seconds at 95° C., 30 seconds at 55° C., and 30 seconds at 72° C.)×35 cycles (20 cycles in the case of Actb). The primers used are shown below.
Each PCR product was electrophoresed on a 2% agarose gel, stained with ethidium bromide, and a band was observed by UV irradiation.

[3] = tested on: human-derived pluripotent stem cell; test: Hcrt expression in human-derived pluripotent stem cell (similar effect to Experiment 1); details: stated as similar to Experiment 1

CC(=O)N[C@@H]1C(O)O[C@H](CO)[C@@H](O)[C@@H]1O (stereo partly drawn) [ManNAc, N-acetyl-D-mannosamine]
Expression of Hcrt [1]: detected only in a 1.0 mM ManNAc-added culture
Level of Hcrt expression by addition period ([2]; 1.0 mM ManNAc, added on 4th to 10th, 7th to 10th and 0th to 10th days versus 0th to 4th and 0th to 7th days): high expression was observed in the section in which ManNAc was added to a medium on and after 7th day of differentiation
Expression of Hcrt with changed time of addition ([2]; 1.0 mM, addition time varied, FIG. 3): expression of Hcrt was observed only in a ManNAc-added section at any addition time
Expression of an orexin gene (Hcrt) ([2]; added from initiation of differentiation culturing at 0.2 and 1.0 mM, cells collected on 10th day, FIG. 2): expression of Hcrt was recognized only in a ManNAc-added section
Expression of Hcrt in a human-derived pluripotent stem cell [3]: a similar effect was obtained
